Data reported in ChEMBL document CHEMBL1143640, “Modulators of the human CCR5 receptor. Part 2: SAR of substituted 1-(3,3-diphenylpropyl)-piperidinyl phenylacetamides” (Bioorg Med Chem Lett, 2005).
pIC50: −log10 of the molar value.

Experiments:
[1] = target: T1, C-C chemokine receptor type 5 (Homo sapiens, UniProt P51681); experiment: Displacement of [125I]-MIP-1 alpha from human C-C chemokine receptor type 5 expressed in CHO cells; type: cell-based
[2] = In vitro intrinsic clearance against rat hepatocytes
[3] = Area under the plasma concentration curve was determined at 0-6 hours in rat after ~2 mg/kg oral dosage; n=2
[4] = target: T1, C-C chemokine receptor type 5; experiment: Inhibition of MIP-1beta stimulated calcium transients in CCR5-expressing CHO cells; type: functional, cell-based
[5] = Ability to inhibit the chemotaxis of human AlloT cells in response to MIP-1beta; type: functional, cell-based
[6] = Bioavailability in rat after 4-10 mg/kg oral dosage; n=3; type: ADME, organism-based; settings: in vivo
[7] = Clearance in rat after 1 mg/kg i.v. dosage; n=3; settings: in vivo, iv

T1 sequence (P51681 whole entry): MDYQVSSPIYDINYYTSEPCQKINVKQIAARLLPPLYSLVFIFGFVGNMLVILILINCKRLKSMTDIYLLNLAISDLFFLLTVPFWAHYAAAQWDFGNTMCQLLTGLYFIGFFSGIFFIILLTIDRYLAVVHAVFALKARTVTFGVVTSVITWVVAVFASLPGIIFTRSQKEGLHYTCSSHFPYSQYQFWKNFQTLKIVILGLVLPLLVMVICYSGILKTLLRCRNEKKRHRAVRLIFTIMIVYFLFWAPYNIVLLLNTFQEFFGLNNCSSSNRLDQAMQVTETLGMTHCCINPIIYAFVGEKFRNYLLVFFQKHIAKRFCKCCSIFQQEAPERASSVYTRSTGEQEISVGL

Structure (SMILES)	pIC50 [1]	further results
CCN(C(=O)Cc1ccc(S(C)(=O)=O)cc1)C1CCN(CCC(c2ccccc2)c2ccc(C(F)(F)F)cc2)CC1 (stereo not given)	8.64	Clint [2]: 37 uL/min/10e6 cells
CCN(C(=O)Cc1ccc(S(C)(=O)=O)cc1)C1CCN(CCC(c2ccccc2)c2ccc(NC(C)=O)cc2)CC1 (stereo not given)	7.59	–
CCN(C(=O)Cc1ccc(S(C)(=O)=O)cc1)C1CCN(CCC(c2ccccc2)c2ccc(NC(=O)c3ccccc3)cc2)CC1 (stereo not given)	6.89	–
CCN(C(=O)Cc1ccc(S(C)(=O)=O)cc1)C1CCN(CCC(c2ccccc2)c2ccc(NC(=O)OC(C)(C)C)cc2)CC1 (stereo not given)	6.70	–
CCN(C(=O)Cc1ccc(S(C)(=O)=O)cc1)C1CCN(CCC(c2ccc(NS(C)(=O)=O)cc2)c2cccc(F)c2)CC1 (stereo not given)	–	AUC at 6 h [3]: 0.002 µM·h; Clint [2]: 15 uL/min/10e6 cells
CCN(C(=O)Cc1ccc(S(C)(=O)=O)cc1)C1CCN(CCC(c2ccccc2)c2ccc(C(=O)OC)cc2)CC1 (stereo not given)	8.15	Clint [2]: > 150 uL/min/10e6 cells
CCN(C(=O)Cc1ccc(S(C)(=O)=O)cc1)C1CCN(CCC(c2ccc(Cl)cc2)c2ccc(Cl)cc2)CC1	6.12	–
CCN(C(=O)Cc1ccc(S(C)(=O)=O)cc1)C1CCN(CCC(c2ccccc2)c2ccc(NC(=O)C(C)(C)C)cc2)CC1 (stereo not given)	7.66	–
CCN(C(=O)Cc1ccc(S(C)(=O)=O)cc1)C1CCN(CCC(c2ccccc2)c2ccc(SC)cc2)CC1 (stereo not given)	7.92	–
CCN(C(=O)Cc1ccc(S(C)(=O)=O)cc1)C1CCN(CCC(c2ccccc2)c2ccc(NS(C)(=O)=O)cc2)CC1 (stereo not given)	7.74	pIC50 [4]: 7.62; pIC50 [5]: 7.51
CCN(C(=O)Cc1ccc(S(C)(=O)=O)cc1)C1CCN(CCC(c2ccc(NC(=O)OC(C)(C)C)cc2)c2cccc(F)c2)CC1 (stereo not given)	7.05	–
CCN(C(=O)Cc1ccc(S(C)(=O)=O)cc1)C1CCN(CCC(c2ccccc2)c2ccc(C#N)cc2)CC1 (stereo not given)	> 9.00	–
CCN(C(=O)Cc1ccc(S(C)(=O)=O)cc1)C1CCN(CCC(c2ccccc2)c2ccc(-c3ccccc3)cc2)CC1 (stereo not given)	7.07	–
CCN(C(=O)Cc1ccc(S(C)(=O)=O)cc1)C1CCN(CCC(c2ccccc2)c2ccc(C(N)=O)cc2)CC1 (stereo not given)	6.59	–
CCN(C(=O)Cc1ccc(S(C)(=O)=O)cc1)C1CCN(CCC(c2ccccc2)c2ccc(Cl)c(Cl)c2)CC1 (stereo not given)	7.11	–
CCN(C(=O)Cc1ccc(S(C)(=O)=O)cc1)C1CCN(CCC(c2ccccc2)c2ccc(N)cc2)CC1 (stereo not given)	6.70	–
CCN(C(=O)Cc1ccc(S(C)(=O)=O)cc1)C1CCN(CCC(c2ccccc2)c2ccc(F)cc2)CC1 (stereo not given)	6.51	–
CCN(C(=O)Cc1ccc(S(C)(=O)=O)cc1)C1CCN(CCC(c2ccc(F)cc2)c2ccc(F)cc2)CC1	6.11	AUC at 6 h [3]: 1.87 µM·h; bioavailability [6]: 56%; Clint [2]: 4 uL/min/10e6 cells; clearance [7]: 10 mL/min/kg
CCN(C(=O)Cc1ccc(S(C)(=O)=O)cc1)C1CCN(CCC(c2ccccc2)c2ccc(C)cc2)CC1 (stereo not given)	7.55	–
C=CCN(C(=O)Cc1ccc(S(C)(=O)=O)cc1)C1CCN(CCC(c2ccccc2)c2ccccc2)CC1	7.89	AUC at 6 h [3]: 0.132 µM·h; bioavailability [6]: 11%; Clint [2]: 54 uL/min/10e6 cells; clearance [7]: 54 mL/min/kg
CS(=O)(=O)c1ccc(CC(=O)N(C2CC2)C2CCN(CCC(c3ccccc3)c3ccccc3)CC2)cc1	7.49	–
CCN(C(=O)Cc1ccc(S(C)(=O)=O)cc1)C1CCN(CCC(c2ccccc2)c2ccc(OC)cc2)CC1 (stereo not given)	8.20	Clint [2]: 41 uL/min/10e6 cells
CCN(C(=O)Cc1ccc(S(C)(=O)=O)cc1)C1CCN(CCC(c2ccccc2)c2ccc(NS(=O)(=O)Cc3ccccc3)cc2)CC1 (stereo not given)	7.96	–
CCN(C(=O)Cc1ccc(S(C)(=O)=O)cc1)C1CCN(CCC(c2ccccc2)c2ccc(NS(=O)(=O)c3ccccc3)cc2)CC1 (stereo not given)	6.13	–
CCN(C(=O)Cc1ccc(S(C)(=O)=O)cc1)C1CCN(CCC(c2ccccc2)c2cccc(Cl)c2)CC1 (stereo not given)	7.24	–
CCN(C(=O)Cc1ccc(S(C)(=O)=O)cc1)C1CCN(CCC(c2ccccc2)c2ccccc2)CC1	7.74	–
CCN(C(=O)Cc1ccc(S(C)(=O)=O)cc1)C1CCN(CCC(c2ccc(Cl)cc2)c2cccc(F)c2)CC1 (stereo not given)	7.72	–
CCN(C(=O)Cc1ccc(S(C)(=O)=O)cc1)C1CCN(CCC(c2ccccc2)c2ccc(NC(=O)Cc3ccccc3)cc2)CC1 (stereo not given)	8.23	AUC at 6 h [3]: 0.012 µM·h
CCN(C(=O)Cc1ccc(S(C)(=O)=O)cc1)C1CCN(CCC(c2ccc(NC(C)=O)cc2)c2cccc(F)c2)CC1 (stereo not given)	8.10	AUC at 6 h [3]: 0.008 µM·h; Clint [2]: 17 uL/min/10e6 cells
CCN(C(=O)Cc1ccc(S(C)(=O)=O)cc1)C1CCN(CCC(c2ccccc2)c2ccc(Cl)cc2)CC1 (stereo not given)	8.07	bioavailability [6]: 3%; Clint [2]: 34 uL/min/10e6 cells; clearance [7]: 46 mL/min/kg
